# Data reported in patent US10010558B2, “Frankiamicin A compositions and methods” (STC.UNM, priority 2015, dated 2018).
# Where two headings read alike, the source gives them in different places.
# Key:
# Format in all cases: cell-based
# T. cruzi (ATCC 30013) = test: T. cruzi viability assay by microscopy; conditions: 100 μM frankiamicin A, eight days
# C. albicans = test: Antimicrobial MTT viability assay, C. albicans; conditions: 0-100 μM
# Jurk = test: Anticancer MTT viability assay, Jurk cells; conditions: Jurk cancer cell line, 48 hours incubation, 0-100 μM
# He = test: Anticancer MTT viability assay, He cells; conditions: He cancer cell line, 48 hours incubation, 0-100 μM
# MC = test: Anticancer MTT viability assay, MC cells; conditions: MC cancer cell line, 48 hours incubation, 0-100 μM
# S. aureus = test: Antimicrobial MTT viability assay, S. aureus; conditions: for MIC: S. aureus
# Procedure: Antimicrobial and anticancer assays were conducted by quantifying viability of cells exposed to frankiamicin A (2-fold serial diluted in DMSO) at concentrations ranging from 0-100 μM using an MTT assay (Frolova et al., 2013, J Med Chem 56:6886-6900). For antimicrobial assays, a liquid culture of each test strain was grown overnight at 37° C. in TSB media in a rotary incubator. The resulting culture was diluted 1:100 into fresh media and 100 μL aliquots were transferred to a 96-well plate. Serial diluted compound was added to individual wells and cells were incubated at 37° C. for either 6 hours or 18 hours prior to MTT assay. Anticancer assays were conducted using approximately 4000 cells incubated overnight at 37° C. in 100 μL DMEM media supplemented with 10% FBS, adding serial diluted compound, and incubating for 48 hours prior to MTT assay. Assays of T. cruzi (ATCC 30013) were conducted by growing cells unshaken at 25° C. in ATCC Medium 1029 (LIT Medium) for five days, diluting 1:10 into fresh media, adding 100 μM frankiamicin A, incubating for an additional eight days, and assessing cell viability by microscopy using an untreated control for comparison.
# A. baumanii = test: Antimicrobial MTT viability assay, A. baumanii
# Y. pestis = system: Y. pestis
# P. aeruginosa = test: Antimicrobial MTT viability assay, P. aeruginosa
# [1] = system: methicillin-resistant S. aureus (MRSA); test: Antimicrobial MTT viability assay, MRSA; conditions: for MIC: MRS(A)
# S. pyogenes = test: Antimicrobial MTT viability assay, S. pyogenes
substance,measurement,setting,value
frankiamicin A,IC50,T. cruzi (ATCC 30013),> 1 µM
same,IC50,C. albicans,> 1 µM
same,IC50,Jurk,> 1 µM
same,IC50,He,> 1 µM
same,IC50,MC,> 1 µM
same,MIC,S. aureus; assessed after 6 h incubation,~1 µM
same,MIC,S. aureus; assessed after 18 h incubation,>1 µM
same,antimicrobial activity,S. aureus; wild-type S. aureus,detectable antimicrobial activity
same,MIC,A. baumanii; assessed after 6 h incubation,>1 µM
same,MIC,A. baumanii; assessed after 18 h incubation,>1 µM
same,MIC,Y. pestis; assessed after 6 h incubation,>1 µM
same,MIC,Y. pestis; assessed after 18 h incubation,>1 µM
same,MIC,P. aeruginosa; assessed after 6 h incubation,>1 µM
same,MIC,P. aeruginosa; assessed after 18 h incubation,>1 µM
same,MIC,[1]; assessed after 6 h incubation,~
same,MIC,[1]; assessed after 18 h incubation,>1 µM
same,antimicrobial activity,[1]; methicillin-resistant S. aureus (MRSA),detectable antimicrobial activity
same,MIC,S. pyogenes; assessed after 6 h incubation,>1 µM
same,MIC,S. pyogenes; assessed after 18 h incubation,>1 µM
